{"source": "patent US8664225B2", "about": "“1-[2-(2,4-dimethylphenylsulfanyl)-phenyl] piperazine as a compound with combined serotonin reuptake, 5-HT3 and 5-HT1A activity for the treatment of pain or residual symptoms in depression relating to sleep and cognition” (H. Lundbeck A/S, priority 2007, dated 2014)", "key": {"Human 5-HT3A receptor": {"target": "T1, Human 5-HT3A receptor (Homo sapiens, UniProt P46098)", "T1 sequence (P46098 24-478)": "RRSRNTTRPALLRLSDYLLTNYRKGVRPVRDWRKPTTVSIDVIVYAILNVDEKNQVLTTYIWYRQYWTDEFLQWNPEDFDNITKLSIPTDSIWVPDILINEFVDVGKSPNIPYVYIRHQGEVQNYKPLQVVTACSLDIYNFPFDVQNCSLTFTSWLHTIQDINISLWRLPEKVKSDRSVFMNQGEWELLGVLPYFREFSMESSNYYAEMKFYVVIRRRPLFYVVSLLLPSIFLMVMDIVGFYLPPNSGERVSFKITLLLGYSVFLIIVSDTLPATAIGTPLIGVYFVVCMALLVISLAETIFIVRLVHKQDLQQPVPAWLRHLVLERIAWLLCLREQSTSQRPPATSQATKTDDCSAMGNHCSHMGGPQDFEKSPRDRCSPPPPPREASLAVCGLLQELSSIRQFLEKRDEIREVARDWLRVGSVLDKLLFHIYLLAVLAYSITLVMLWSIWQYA", "assay": "Human 5-HT3A receptor functional assay", "assay_type": "biochemical", "details": "read-out: IC50 (antagonism in functional assay)"}, "[1]": {"target": "Human serotonin transporter (Homo sapiens, UniProt P31645)", "sequence (P31645 whole entry)": "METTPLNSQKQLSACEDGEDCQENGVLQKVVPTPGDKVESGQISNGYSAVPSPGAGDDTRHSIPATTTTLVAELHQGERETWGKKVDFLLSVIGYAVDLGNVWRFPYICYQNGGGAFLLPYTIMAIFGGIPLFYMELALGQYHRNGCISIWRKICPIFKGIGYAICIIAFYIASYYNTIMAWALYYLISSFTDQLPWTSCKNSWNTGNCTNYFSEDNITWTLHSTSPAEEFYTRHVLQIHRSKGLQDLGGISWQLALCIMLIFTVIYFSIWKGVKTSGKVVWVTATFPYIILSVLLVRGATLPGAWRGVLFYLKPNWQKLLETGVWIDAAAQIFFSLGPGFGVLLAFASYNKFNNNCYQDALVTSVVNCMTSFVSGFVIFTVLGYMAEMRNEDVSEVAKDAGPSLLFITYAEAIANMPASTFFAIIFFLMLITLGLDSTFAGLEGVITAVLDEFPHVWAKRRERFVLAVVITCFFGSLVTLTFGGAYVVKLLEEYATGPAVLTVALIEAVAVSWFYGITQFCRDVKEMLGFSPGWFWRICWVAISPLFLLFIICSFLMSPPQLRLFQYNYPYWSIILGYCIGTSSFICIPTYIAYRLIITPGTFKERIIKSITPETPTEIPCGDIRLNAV", "assay": "Human serotonin transporter, blockade of 5-HT uptake", "assay_type": "biochemical"}, "Rat 5-HT3 receptor": {"target": "T2, Rat 5-HT3 receptor (Rattus norvegicus, UniProt P35563)", "T2 sequence (P35563 24-483)": "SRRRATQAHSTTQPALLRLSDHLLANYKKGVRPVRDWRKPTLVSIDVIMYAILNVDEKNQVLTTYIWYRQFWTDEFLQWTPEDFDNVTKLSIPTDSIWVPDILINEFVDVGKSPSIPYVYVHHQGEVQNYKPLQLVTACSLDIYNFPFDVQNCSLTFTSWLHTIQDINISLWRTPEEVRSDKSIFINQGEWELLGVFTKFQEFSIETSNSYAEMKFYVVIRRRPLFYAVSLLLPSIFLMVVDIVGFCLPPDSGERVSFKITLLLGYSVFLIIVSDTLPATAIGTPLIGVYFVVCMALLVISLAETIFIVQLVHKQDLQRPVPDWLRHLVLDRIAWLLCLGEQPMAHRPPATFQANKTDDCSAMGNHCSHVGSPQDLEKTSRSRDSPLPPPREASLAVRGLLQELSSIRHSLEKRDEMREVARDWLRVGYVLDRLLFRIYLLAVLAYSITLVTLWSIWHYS", "assay": "Rat 5-HT3 receptor functional assay (antagonism)", "assay_type": "biochemical"}, "patients [2]": {"tested_on": "patients", "assay": "Clinical trial in patients, sexually related adverse effects reported", "assay_type": "in vivo, human", "details": "approximately 100 patients", "experimental": "(§1) The HAM-D scale may be used to assess the severity of depression in patients by means of a 24 items questionnaire. Item 4, 5 and 6 of the scale relate to how the patients sleep, i.e. is it easy to fall asleep (insomnia Early), does the patient wake up during the night (Insomnia Middle), and does the patient wake up early in the morning (Insomnia Late). The compound was tested at 5 and 10 mg daily against placebo with approximately 100 patients per arm.\nThis notion was further supported by clinical trials conducted in patients. The above mentioned clinical trial in patients also captured sexual adverse effects reported by the patients."}, "patients [3]": {"tested_on": "patients", "assay": "Clinical trial in patients, HAM-D sleep items 4, 5 and 6", "assay_type": "in vivo, human", "details": "5 and 10 mg daily against placebo, 6 weeks, approximately 100 patients per arm, HBr salt, FIGS. 23-25", "experimental": "as §1"}, "mice": {"tested_on": "mice", "assay": "Mouse intradermal formalin test", "assay_type": "in vivo", "details": "formalin 4.5% into hind paw", "experimental": "In this model, mice receive an injection of formalin (4.5%, 20 μl) into the left hind paw. The irritation caused by the formalin injection elicits a characteristic biphasic behavioural response, as quantified by the amount of time spent licking the injured paw. The first phase (˜0-10 minutes) represents direct chemical irritation and nociception, whereas the second (˜20-30 minutes) is thought to represent pain of neuropathic origin. The two phases are separated by a quiescent period in which behaviour returns to normal. The effectiveness of test compounds to reduce the painful stimuli is assessed by counting the amount of time spent licking the injured paw in the two phases."}, "human 5HT3 receptor": {"target": "T3, human 5HT3 receptor (Homo sapiens, UniProt P46098)", "T3 sequence (P46098 24-478)": "T1 sequence (P46098 24-478)", "assay": "Human 5HT3 receptor in vitro binding assay"}, "healthy subjects": {"tested_on": "healthy subjects", "assay": "Clinical trials in healthy subjects, sexual dysfunction reported", "assay_type": "in vivo, human", "details": "of 114 healthy subjects exposed"}}}
{"molecule": "Cc1ccc(Sc2ccccc2N2CCNCC2)c(C)c1", "note": "[compound I, 1-[2-(2,4-dimethylphenylsulfanyl)-phenyl]piperazine]", "values": [{"measurement": "IC50", "setting": "Human 5-HT3A receptor", "result": "~20", "unit": "nM"}, {"measurement": "IC50", "setting": "[1]", "result": 40, "unit": "nM"}, {"measurement": "IC50", "setting": "Rat 5-HT3 receptor", "result": 0.2, "unit": "nM"}, {"measurement": "number of patients reporting Anorgasmia", "setting": "patients [2]; 5 mg daily", "result": 0}, {"measurement": "number of patients reporting Ejaculation delayed", "setting": "patients [2]; 5 mg daily", "result": 0}, {"measurement": "number of patients reporting Erectile dysfunction", "setting": "patients [2]; 5 mg daily", "result": 0}, {"measurement": "number of patients reporting Libido decreased", "setting": "patients [2]; 5 mg daily", "result": 1}, {"measurement": "number of patients reporting Loss of libido", "setting": "patients [2]; 5 mg daily", "result": 1}, {"measurement": "number of patients reporting Orgasm abnormal", "setting": "patients [2]; 5 mg daily", "result": 0}, {"measurement": "number of patients reporting Orgasmic sensation decreased", "setting": "patients [2]; 5 mg daily", "result": 0}, {"measurement": "number of patients reporting Anorgasmia", "setting": "patients [2]; 10 mg daily", "result": 0}, {"measurement": "number of patients reporting Ejaculation delayed", "setting": "patients [2]; 10 mg daily", "result": 0}, {"measurement": "number of patients reporting Erectile dysfunction", "setting": "patients [2]; 10 mg daily", "result": 0}, {"measurement": "number of patients reporting Libido decreased", "setting": "patients [2]; 10 mg daily", "result": 1}, {"measurement": "number of patients reporting Loss of libido", "setting": "patients [2]; 10 mg daily", "result": 0}, {"measurement": "number of patients reporting Orgasm abnormal", "setting": "patients [2]; 10 mg daily", "result": 0}, {"measurement": "number of patients reporting Orgasmic sensation decreased", "setting": "patients [2]; 10 mg daily", "result": 0}, {"measurement": "sleep pattern, HAM-D items 4, 5 and 6 (Insomnia Early, Middle, Late)", "setting": "patients [3]", "result": "large and dose dependent improvement"}, {"measurement": "first phase scores (time spent licking the paw, 0-5 minutes)", "setting": "mice; FIG. 18a, highest dose", "result": "significant reduction"}, {"measurement": "second phase pain scores (time spent licking the paw, 20-30 minutes)", "setting": "mice; FIG. 18b", "result": "significant reduction"}, {"measurement": "Ki", "setting": "human 5HT3 receptor", "result": 4.5, "unit": "nM"}, {"measurement": "number of subjects reporting sexual dysfunction", "setting": "healthy subjects", "result": "one"}]}
